Patent EP4782453A1 (Beyang Therapeutics Co., Ltd., priority 2023, dated 2025)

Molecular target: T1, Menin-MLL (Homo sapiens, UniProt O00255)
T1 construct: His-Menin (M1-L615 end); purchased BIORTUS BP9210
T1 sequence (O00255 1-615 isoform O00255-1): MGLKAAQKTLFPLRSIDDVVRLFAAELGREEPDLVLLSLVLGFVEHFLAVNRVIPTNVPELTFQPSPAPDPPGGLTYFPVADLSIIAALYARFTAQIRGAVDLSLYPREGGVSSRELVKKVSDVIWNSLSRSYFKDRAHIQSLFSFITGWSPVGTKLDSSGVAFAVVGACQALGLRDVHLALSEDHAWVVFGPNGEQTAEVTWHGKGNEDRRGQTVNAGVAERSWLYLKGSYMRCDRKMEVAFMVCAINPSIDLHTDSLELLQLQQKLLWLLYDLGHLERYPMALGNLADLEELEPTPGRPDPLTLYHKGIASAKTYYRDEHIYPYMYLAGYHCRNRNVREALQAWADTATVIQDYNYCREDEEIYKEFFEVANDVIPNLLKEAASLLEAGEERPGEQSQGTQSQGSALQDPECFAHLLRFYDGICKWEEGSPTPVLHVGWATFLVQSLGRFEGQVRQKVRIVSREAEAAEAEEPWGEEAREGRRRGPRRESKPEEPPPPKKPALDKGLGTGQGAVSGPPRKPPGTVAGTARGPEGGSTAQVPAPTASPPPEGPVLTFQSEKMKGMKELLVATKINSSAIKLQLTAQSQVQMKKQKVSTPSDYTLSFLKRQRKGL
Experiment: Inhibitory activity against Menin-MLL binding (fluorescence polarization)
Conditions: Menin-MLL IC50, fluorescence polarization; 150 nM His-Menin, 15 nM FITC-MLL; 25°C for 60 min
Outline: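 His-Menin (M1-L615, 150 nM) preincubated with compound 15 min at 25 °C in HEPES pH 7.5, 50 mM NaCl, 1 mM DTT, 0.01% BSA, then 15 nM FITC-MLL4-43 peptide added for 60 min at 25 °C. Fluorescence polarization read; IC50 from 4-parameter logistic fit, duplicates.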

| Structure (SMILES) | IC50 [nM] |
| --- | --- |
| CCN(C(=O)c1cc(F)ccc1-c1cc(C2=CCN(C(=O)C3NC4CCC3CC4)CC2)c2ccncn12)C(C)C [Example 113, N-ethyl-5-fluoro-N-(isopropyl)-2-(5-{1-[(1R,3S,4S)-2-azabicyclo[2.2.2]octan-3-carbonyl]-1,2,3,6-tetrahydropyridin-4-yl}pyrrolo[1,2-c]pyrimidin-7-yl)benzamide] | 201 |
| CCN(C(=O)c1cc(F)ccc1-c1cc(C2CCN(C[C@H]3CC[C@H](NS(=O)(=O)CC)CC3)C2)nc2c1cnn2C)C(C)C (mixture of isomers) [Example 11, N-ethyl-5-fluoro-2-[1-methyl-6-(1-{[(1r,4r)-4-ethanesulfonamidocyclohexyl]methyl}pyrrolidin-3-yl)-1H-pyrazolo[3,4-b]pyridin-4-yl]-N-(isopropyl)benzamide] | 155 |
| CCN(C(=O)c1cc(F)ccc1-c1cc(C2CN(C(=O)[C@@H](NC)C(C)C)C2)cn2c(C)nc(F)c12)C(C)C [Example 315] | 39 |

Same assay, conditions: fluorescence polarization; 150 nM His-Menin, 15 nM FITC-MLL; 25°C for 60 min; read-out: Menin-MLL IC50

| Structure (SMILES) | IC50 [nM] |
| --- | --- |
| CCN(C(=O)c1cc(F)ccc1-c1cc(C2CCN(C[C@H]3CC[C@H](NC(=O)OC(C)(C)C)CC3)C2)cn2c(C)ncc12)C(C)C (mixture of isomers) [Example 29, N-[(1r,4r)-4-{[3-(8-{2-[ethyl(isopropyl)aminoformyl]-4-fluorophenyl}-3-methylimidazo[1,5-a]pyridin-6-yl)pyrrolidin-1-yl]methyl}cyclohexyl]tert-butyl carbamate] | 10.5 |
| CCN(C(=O)c1cc(F)ccc1-c1cc(C2(O)CN(C[C@H]3CC[C@H](NC(=O)OC(C)(C)C)CC3)C2)cc2c1cnn2C)C(C)C [Example 79, N-[(1r,4r)-4-{[3-(4-{2-[ethyl(isopropyl)aminoformyl]-4-fluorophenyl}-1-methyl-1H-indazol-6-yl)-3-hydroxylazacyclobutan-1-yl]methyl}cyclohexyl]tert-butyl carbamate] | 279 |
| CCN(C(=O)c1cc(F)ccc1-c1cc(C2CN(C(CCCN3C[C@H]4C[C@@H]3CO4)C3(C)COC3)C2)cn2c(C)ncc12)C(C)C (stereo partly drawn) [Example 485, N-ethyl-5-fluoro-2-(3-methyl-6-{1-[1-(3-methyloxacyclobutan-3-yl)-4-[(1R,4R)-2-oxa-5-azabicyclo[2.2.1]heptan-5-yl]butyl]azacyclobut-3-yl}imidazo[1,5-a]pyridin-8-yl)-N-(isopropyl)benzamide] | 42 |
| CCN(C(=O)c1cc(F)ccc1-c1cc(N2CCN(C(=O)[C@@H]3C[C@H](OC)CN3)CC2)cn2c(C)nc(Cl)c12)C(C)C [Example 109] | 96 |
| CCS(=O)(=O)N[C@@H]1CC[C@@H](CN2CC[C@@H](c3cc(-c4ccc(F)cc4C(=O)N(CC(F)F)C(C)C)c4cnc(C)n4c3)C2)OC1 [Example 163-1, N-(2,2-difluoroethyl)-2-{6-[(3S)-1-{[(2S,5R)-5-ethanesulfonamidooxacyclohexan-2-yl]methyl}pyrrolidin-3-yl]-3-methylimidazo[1,5-a]pyridin-8-yl}-5-fluoro-N-(isopropyl)benzamide] | 47 |
| Cc1ncc2c(-c3ccc(F)cc3C(=O)N(C)C(C)C)cc(C3CN([C@@H](CCCN4CCN(CCO)CC4)C(C)C)C3)cn12 [Example 448-1] | 120 |

Further lines, results first:

| IC50 [nM] | Structure (SMILES) |
| --- | --- |
| 805 | CO[C@H]1CCN(CCC[C@@H](C(C)C)N2CC(c3cc(-c4ccc(F)cc4C(=O)N4CCOC[C@H]4C)c4cnn(C)c4c3)C2)C1 [Example 184-1] |
| 80 | CCN(C(=O)c1cc(F)ccc1-c1cc(C2CN([C@@H](CCCN3CCN(C(=O)OC(C)(C)C)CC3)C(C)C)C2)cn2c(C)ncc12)C(C)C [Example 454-2, 4-[(4S)-4-[3-(8-{2-[ethyl(isopropyl)aminoformyl]-4-fluorophenyl}-3-methylimidazo[1,5-a]pyridin-6-yl)azacyclobutan-1-yl]-5-methylhexyl]piperazin-1-tert-butyl carboxylate] |
| 621 | COC1CCN(CCC[C@@H](C(C)C)N2CC(c3cc(-c4ccc(F)cc4C(=O)N4CCOC[C@H]4C)c4cnn(C)c4c3)C2)CC1 [Example 181-1, 4-{4-fluoro-2-[(3R)-3-methylmorpholin-4-carbonyl]phenyl}-6-{1-[(3S)-6-(4-methoxypiperidin-1-yl)-2-methylhexan-3-yl]azacyclobutan-3-yl}-1-methyl-1H-indazole] |
